Data published in patent US11162902B2, “Metasurfaces comprised of nanosphere oligomers with uniform narrow gap spacings, their method of fabrication and applications in sensing” (The Regents of the University of California, priority 2017, dated 2021).
Values after ≈ are worked out from the molar mass of the structure shown.

Columns and labels:
[1] = tested on: P. aeruginosa strain PA14; settings: cited from earlier work
[2] = tested on: P. aeruginosa biofilms; experiment: Antibiotic susceptibility measurements of surface-attached bacteria / biofilms (live/dead staining, dead cell fraction); format: cell-based, Pseudomonas aeruginosa; settings: 600 μg·mL^−1 carbenicillin in PBS for 3 h; growth 6, 10, 15, 24 h; FIG. 18E

CC1(C)S[C@@H]2[C@H](NC(=O)C(C(=O)O)c3ccccc3)C(=O)N2[C@H]1C(=O)O (some centres unmarked) [carbenicillin]
minimum inhibitory concentration [1]: 128 µg/mL (≈ 338 µM)
antibiotic susceptibility of surface-attached bacteria at different stages of biofilm growth [2]: susceptibility decreased significantly with increasing growth time
